Earlier results as cited in patent publication US20230048872A1, “COMPOSITIONS AND METHODS FOR DIAGNOSING OR TREATING NEUTROPHIL-MEDIATED INFLAMMATORY DISEASE” (THE BOARD OF TRUSTEES OF THE UNIVERSITY OF ILLINOIS, priority 2013, published 2023).

## Oc1cc(O)cc(/C=C/c2ccc(O)c(O)c2)c1 [Piceatannol, piceatannol]
  solubility in water: low
